Experimental data published in patent publication EP0565377B1, “Therapeutic agents for use in the treatment of Parkinson's Disease” (Kyowa Hakko Kogyo Co., Ltd., priority 1992, dated 1993).
Where two headings read alike, the source gives them in different places.

Tests used:
[1] = test system: Haloperidol-Induced Catalepsy; assay: Effect on haloperidol-induced catalepsy; format: in vivo, male ddY mice; conditions: test compound 10 mg/kg orally; for inhibition in vivo at 10 mg/kg: Mus musculus, po, 1 h, rate of decrease in total score based on control group, read-out: Remission Rate (%); for Number of the Animals Showing Remission: of 5 mice, catalepsy score not more than 4 points; for Total Score: total catalepsy score of 5 mice (25 points at the full)
Method: The experiment was performed by using several groups of 5-weeks-old male ddY mice (weighing 22 to 24 g, Japan SLC), each group consisting of 5 mice. Haloperidol (Janssen Pharmaceutica) suspended in 0.3% CMC was intraperitoneally administered to each mouse at a dose of 1.0 mg/kg. Test compounds were suspended in 0.3% CMC or in injectable distilled water (Otsuka Pharmaceutical Co., Ltd.) containing Tween 80. L-DOPA (Kyowa Hakko Kogyo Co., Ltd.) and benserazide hydrochloride (Kyowa Hakko Kogyo Co., Ltd.) were suspended in 0.3% CMC. One hour after the haloperidol administration, the test compound suspensions and the control suspension [0.3% CMC or injectable distilled water (Otsuka Pharmaceutical Co., Ltd.) containing Tween 80] containing no test compound were orally administered to separate groups of the mice (0.1 ml per 10 g of body weight). One hour after the administration of the test compound, the forelimbs of each mouse and subsequently the hindlimbs of the same mouse were placed on a 4.5 cm-high, 1.0 cm-wide bar and catalepsy was estimated. All of the test compounds were orally administered at a dose of 10 mg/kg, and L-DOPA (100 mg/kg) and benserazide (25 mg/kg) were intraperitoneally administered together as a control experiment. The catalepsy score and the standard of judgment are shown below.
The effect of the compounds was evaluated by the total of the catalepsy scores of five mice in each group (25 points at the full). The groups wherein the total score was not more than 20 points were estimated to be effective. The number of the animals showing remission against catalepsy is the number of the mice for which the catalepsy score was not more than 4 points.

dd-strain male mice = assay: Acute toxicity test (minimum lethal dose, oral); format: in vivo; conditions: oral administration, mortality seven days after administration, three mice per group
Method: Test compounds were orally administered to groups of dd-strain male mice weighing 20±1 g, each group consisting of three mice. Seven days after the administration, minimum lethal dose (MLD) of each compound was determined by observing the mortality.

[2] = Table 4-2, 0.3% Tween 80 control 25

SMILES | inhibition in vivo at 10 mg/kg ([1]; Table 4-1) [%] | Number of the Animals Showing Remission ([1]; Table 4-1) | Total Score ([1]; Table 4-1, 0.3% CMC control 25) [points] | MLD (dd-strain male mice) [mg/kg] | inhibition in vivo at 10 mg/kg ([1]; Table 4-2) [%] | Number of the Animals Showing Remission ([1]; Table 4-2) | Total Score [1, 2] [points]
CCCn1c(=O)c2c(nc(/C=C/c3cc(OC)c(OC)c(OC)c3)n2C)n(CCC)c1=O [Compound 5, (E)-7-methyl-1,3-dipropyl-8-(3,4,5-trimethoxystyryl)xanthine] | 28 | 4 | 18 | > 300 | – | – | –
CCCn1c(=O)c2c(nc(/C=C/c3ccc(O)c(O)c3)n2C)n(CCC)c1=O [Compound 53, (E)-8-(3,4-dihydroxystyryl)-7-methyl-1,3-dipropylxanthine] | – | – | – | > 100 | 20 | 4 | 20
CCCn1c(=O)c2[nH]c(/C=C/c3cc(Br)c(OC)c(OC)c3)nc2n(CCC)c1=O [Compound 59, (E)-8-(3-bromo-4,5-dimethoxystyryl)-1,3-dipropylxanthine] | – | – | – | > 300 | 24 | 5 | 19
CCCn1c(=O)c2c(nc(/C=C/c3ccc(OC)cc3OC)n2C)n(CCC)c1=O [Compound 25, (E)-8-(2,4-dimethoxystyryl)-7-methyl-1,3-dipropylxanthine] | – | – | – | > 300 | 52 | 5 | 12
CCCOc1ccc(/C=C/c2nc3c(c(=O)n(CCC)c(=O)n3CCC)n2C)cc1 [Compound 50, (E)-7-methyl-8-(4-propoxystyryl)-1,3-dipropylxanthine] | – | – | – | > 100 | 24 | 3 | 19
CCCn1c(=O)c2c(nc(/C=C/c3ccc(OC)c(C)c3C)n2C)n(CCC)c1=O [Compound 13, (E)-8-(4-methoxy-2,3-dimethylstyryl)-7-methyl-1,3-dipropylxanthine] | 80 | 5 | 5 | > 300 | – | – | –
CCCn1c(=O)c2[nH]c(/C=C/c3ccc4c(c3)OCO4)nc2n(CCC)c1=O [Compound 18, (E)-8-(3,4-methylenedioxystyryl)-1,3-dipropylxanthine] | 20 | 4 | 20 | > 300 | – | – | –
CCCn1c(=O)c2c(nc(/C=C/c3ccc(OC)c(C)c3OC)n2C)n(CCC)c1=O [Compound 15, (E)-8-(2,4-dimethoxy-3-methylstyryl)-7-methyl-1,3-dipropylxanthine] | 24 | 4 | 19 | > 300 | – | – | –
CCCn1c(=O)c2[nH]c(/C=C/c3ccc(OC)cc3OC)nc2n(CCC)c1=O [Compound 24, (E)-8-(2,4-dimethoxystyryl)-1,3-dipropylxanthine] | 24 | 4 | 19 | > 100 | – | – | –
CCCn1c(=O)c2c(nc(/C=C/c3ccc(C)c(C)c3)n2C)n(CCC)c1=O [Compound 31, (E)-8-(3,4-dimethylstyryl)-7-methyl-1,3-dipropylxanthine] | – | – | – | > 100 | 28 | 4 | 18
CCCn1c(=O)c2c(nc(/C=C/c3ccc4c(c3)OCO4)n2C)n(CCC)c1=O [Compound 19, (E)-7-methyl-8-(3,4-methylenedioxystyryl)-1,3-dipropylxanthine] | 24 | 3 | 19 | > 300 | – | – | –
C=CCn1c(=O)c2c(nc(/C=C/c3cc(OC)c(OC)c(OC)c3)n2C)n(CC=C)c1=O [Compound 7, (E)-1,3-diallyl-7-methyl-8-(3,4,5-trimethoxystyryl)xanthine] | 48 | 4 | 13 | > 300 | – | – | –
